Measured values taken from patent US10287274B2, “5-hydroxytryptamine receptor 7 activity modulators and their method of use” (TEMPLE UNIVERSITY OF THE COMMONWEALTH SYSTEM OF HIGHER …, priority 2013, dated 2019).

Target: Serotonin 5HT7 receptors (Homo sapiens (Human), UniProt P34969)
Experiment: Radiolabel Binding Studies for Serotonin 5HT7 receptors
Conditions: read-out: 5-HT7 % inhib @ 10 uM
Procedure: Radiolabel Binding Studies for Serotonin 5HT7 Receptors, Method 1:
Eleven dilutions (5× assay concentration) of the compound of the disclosure and chlorpromazine are prepared in the Assay Buffer by serial dilution to yield final corresponding assay concentrations ranging from 10 pM to 10 μM.
A stock concentration of 5 nM [^3H]LSD (lysergic acid diethyl amide) is prepared in 50 mM Tris-HCl, 10 mM MgCl2, 1 mM EDTA, pH 7.4 (Assay Buffer). Aliquots (50 μl) of radioligand are dispensed into the wells of a 96-well plate containing 100 μl of Assay Buffer. Duplicate 50-μl aliquots of the compound of the disclosure test and chlorpromazine positive control reference compound serial dilutions are added.
Membrane fractions of cells expressing recombinant 5HT7 receptors (50 μL) are dispensed into each well. […]
The 250-μl reactions are incubated at room temperature for 1.5 hours, then harvested by rapid filtration onto 0.3% polyethyleneimine-treated, 96-well filter mats using a 96-well Filtermate harvester. […] The filter mats are dried, then scintillant is added to the filters and the radioactivity retained on the filters is counted in a Microbeta scintillation counter. […]

Serotonin 5HT7 receptors, sequence (P34969 whole entry): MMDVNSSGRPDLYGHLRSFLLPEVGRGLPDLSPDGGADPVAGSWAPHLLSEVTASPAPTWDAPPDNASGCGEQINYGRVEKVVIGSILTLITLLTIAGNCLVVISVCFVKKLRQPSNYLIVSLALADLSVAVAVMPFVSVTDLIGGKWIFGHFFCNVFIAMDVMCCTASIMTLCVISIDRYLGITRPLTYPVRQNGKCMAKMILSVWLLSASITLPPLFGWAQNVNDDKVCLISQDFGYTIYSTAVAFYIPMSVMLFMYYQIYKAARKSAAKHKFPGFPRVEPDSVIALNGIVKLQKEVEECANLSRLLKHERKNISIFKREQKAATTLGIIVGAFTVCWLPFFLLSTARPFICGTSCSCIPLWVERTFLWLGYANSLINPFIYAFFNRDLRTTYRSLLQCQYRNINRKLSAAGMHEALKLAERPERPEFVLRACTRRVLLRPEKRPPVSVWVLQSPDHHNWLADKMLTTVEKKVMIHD

inhibition at 10 µM: 85.7%
Compound: CC1(C)CC(CCN2CCN(c3ccccc3C#N)CC2)OC1=O (stereo not shown) [Entry 19]
